Legend:
Assay type in all cases: cell-based
[1] = tested on: Monographella nivalis (Microdochium nivale); assay: Monographella nivalis (Microdochium nivale) / liquid culture (foot rot cereals); details: 96 h, 200 ppm in the formulation, inhibition of growth determined photometrically 4-5 days after application, compared to untreated control, read-out: disease control
Description: Monographella nivalis (Microdochium nivale)/Liquid Culture (Foot Rot Cereals) Conidia of the fungus from cryogenic storage are directly mixed into nutrient broth (PDB potato dextrose broth). After placing a (DMSO) solution of test compound into a microtiter plate (96-well format), the nutrient broth containing the fungal spores is added. The test plates are incubated at 24° C. and the inhibition of growth is determined photometrically 4-5 days after application.

[2] = tested on: Botryotinia fuckeliana (Botrytis cinerea); assay: Botryotinia fuckeliana (Botrytis cinerea) / liquid culture (gray mould); details: 72 h, 200 ppm in the formulation, inhibition of growth determined photometrically 3-4 days after application, compared to untreated control, read-out: disease control
Description: Botryotinia fuckeliana (Botrytis cinerea)/Liquid Culture (Gray Mould) Conidia of the fungus from cryogenic storage are directly mixed into nutrient broth (Vogels broth). After placing a (DMSO) solution of test compound into a microtiter plate (96-well format), the nutrient broth containing the fungal spores is added. The test plates are incubated at 24° C. and the inhibition of growth is determined photometrically 3-4 days after application.

[3] = tested on: Mycosphaerella arachidis (Cercospora arachidicola); assay: Mycosphaerella arachidis (Cercospora arachidicola) / liquid culture (early leaf spot); details: 96 h, 200 ppm in the formulation, inhibition of growth determined photometrically 4-5 days after application, compared to untreated control, read-out: disease control
Description: Mycosphaerella arachidis (Cercospora arachidicola)/Liquid Culture (Early Leaf Spot) Conidia of the fungus from cryogenic storage are directly mixed into nutrient broth (PDB potato dextrose broth). After placing a (DMSO) solution of test compound into a microtiter plate (96-well format), the nutrient broth containing the fungal spores is added. The test plates are incubated at 24° C. and the inhibition of growth is determined photometrically 4-5 days after application.

[4] = tested on: Glomerella lagenarium (Colletotrichum lagenarium); assay: Glomerella lagenarium (Colletotrichum lagenarium) / liquid culture (anthracnose); details: Colletotrichum orbiculare, 72 h, 200 ppm in the formulation, inhibition of growth measured photometrically 3 to 4 days after application, compared to untreated control, read-out: disease control
Description: Glomerella lagenarium (Colletotrichum lagenarium)/Liquid Culture (Anthracnose) Conidia of the fungus from cryogenic storage are directly mixed into nutrient broth (PDB potato dextrose broth). After placing a (DMSO) solution of test compound into a microtiter plate (96-well format), the nutrient broth containing the fungal spores is added. The test plates are incubated at 24° C. and the inhibition of growth is measured photometrically 3 to 4 days after application.

[5] = tested on: Mycosphaerella graminicola (Septoria tritici); assay: Mycosphaerella graminicola (Septoria tritici) / liquid culture (Septoria blotch); details: Zymoseptoria tritici, 96 h, 200 ppm in the formulation, inhibition of growth determined photometrically 4 to 5 days after application, compared to untreated control, read-out: disease control
Description: Mycosphaerella graminicola (Septoria tritici)/Liquid Culture (Septoria Blotch) Conidia of the fungus from cryogenic storage are directly mixed into nutrient broth (PDB potato dextrose broth). After placing a (DMSO) solution of test compound into a microtiter plate (96-well format), the nutrient broth containing the fungal spores is added. The test plates are incubated at 24° C. and the inhibition of growth is determined photometrically 4 to 5 days after application.

Measured: inhibition of growth at 200 ppm

COc1ccnc(C(=O)N[C@@H](C)C(=O)OC2CCC2c2ccc(F)cc2)c1O (stereo partly drawn) [I.e.02, [2-(4-fluorophenyl)cyclobutyl] (2S)-2-[(3-hydroxy-4-methoxy-pyridine-2-carbonyl)amino]propanoate]
≥ 80%: all assays above

COc1ccnc(C(=O)N[C@@H](C)C(=O)OC2CCC2(c2ccc(C)cc2)c2ccc(C)cc2)c1O (stereo partly drawn) [I.w.02, [2,2-bis(p-tolyl)cyclobutyl](2S)-2-[(3-hydroxy-4-methoxy-pyridine-2-carbonyl)amino]propanoate]
not listed: [2]
≥ 80%: all other assays above

COc1ccnc(C(=O)N[C@@H](C)C(=O)OC2CCC2(c2ccc(Cl)cc2)C2CC2)c1O (stereo partly drawn) [I.as.02, [2-(4-chlorophenyl)-2-cyclopropyl-cyclobutyl] (2S)-2-[(3-hydroxy-4-methoxy-pyridine-2-carbonyl)amino]propanoate]
≥ 80%: all assays above

COc1ccnc(C(=O)N[C@@H](C)C(=O)OC2CCC2c2ccc(Cl)cc2)c1O (stereo partly drawn) [I.f.02, [2-(4-chlorophenyl)cyclobutyl] (2S)-2-[(3-hydroxy-4-methoxy-pyridine-2-carbonyl)amino]propanoate]
≥ 80%: all assays above

COc1ccnc(C(=O)N[C@@H](C)C(=O)OC2CCC2(C)c2ccc(F)cc2)c1O (stereo partly drawn) [I.ad.02, [2-(4-fluoro phenyl)-2-methyl-cyclobutyl] (2S)-2-[(3-hydroxy-4-methoxy-pyridine-2-carbonyl)amino]propanoate]
≥ 80%: [1] | [4] | [5]

COc1ccnc(C(=O)N[C@@H](C)C(=O)OC2CCC2(c2ccccc2)c2ccccc2)c1O (stereo partly drawn) [I.k.02, (2,2-diphenyl cyclobutyl) (2S)-2-[(3-hydroxy-4-methoxy-pyridine-2-carbonyl)amino]propanoate]
≥ 80%: all assays above

CCC1(c2ccc(F)cc2)CCC1OC(=O)[C@H](C)NC(=O)c1nccc(OC)c1O (stereo partly drawn) [I.ag.02, [2-ethyl-2-(4-fluorophenyl)cyclo-butyl] (2S)-2-[(3-hydroxy-4-methoxy-pyridine-2-carbonyl)amino]propanoate]
not listed: [2]
≥ 80%: all other assays above

COc1ccnc(C(=O)N[C@@H](C)C(=O)OC2CCC2(c2ccc(F)cc2)C2CC2)c1O (stereo partly drawn) [I.ar.02, [2-cyclopropyl-2-(4-fluorophenyl)cyclobutyl] (2S)-2-[(3-hydroxy-4-methoxy-pyridine-2-carbonyl)amino]propanoate]
≥ 80%: all assays above

COc1ccnc(C(=O)N[C@@H](C)C(=O)OC2CCC2(Cc2ccccc2)c2ccc(F)cc2)c1O (some centres unmarked) [I.au02]
≥ 80%: all assays above

COc1ccnc(C(=O)N[C@@H](C)C(=O)OC2CCC2(c2cccc(C)c2)c2cccc(C)c2)c1O (stereo partly drawn) [I.s.02, [2,2-bis(m-tolyl)cyclobutyl] (2S)-2-[(3-hydroxy-4-methoxy-pyridine-2-carbonyl)amino]propanoate]
not listed: [2]
≥ 80%: all other assays above

COc1ccnc(C(=O)N[C@@H](C)C(=O)OC2CCC2c2ccc(F)cc2F)c1O (stereo partly drawn) [I.h.02, [2-(2,4-difluorophenyl)cyclobutyl] (2S)-2-[(3-hydroxy-4-methoxy-pyridine-2-carbonyl)amino]propanoate]
≥ 80%: all assays above

COc1ccnc(C(=O)N[C@@H](C)C(=O)OC2CCC2(c2ccc(F)cc2)c2ccc(F)cc2)c1O (stereo partly drawn) [I.u.02, [2,2-bis(4-fluorophenyl)cyclobutyl] (2S)-2-[(3-hydroxy-4-methoxy-pyridine-2-carbonyl)amino]propanoate]
≥ 80%: all assays above

COc1ccnc(C(=O)N[C@@H](C)C(=O)OC2CCC2c2ccc(Cl)cc2Cl)c1O (stereo partly drawn) [I.i.02, [2-(2,4-dichlorophenyl)cyclobutyl] (2S)-2-[(3-hydroxy-4-methoxy-pyridine-2-carbonyl)amino]propanoate]
≥ 80%: all assays above

COc1ccnc(C(=O)N[C@@H](C)C(=O)OC2CCC2(c2ccc(Cl)cc2)c2ccc(Cl)cc2)c1O (stereo partly drawn) [I.v.02, [2,2-bis(4-chlorophenyl)cyclobutyl] (2S)-2-[(3-hydroxy-4-methoxy-pyridine-2-carbonyl)amino]propanoate]
not listed: [2]
≥ 80%: all other assays above

COc1ccnc(C(=O)N[C@@H](C)C(=O)OC2CCC2(CC(C)C)c2ccc(F)cc2)c1O (stereo partly drawn) [I.at.02, [2-(4-fluorophenyl)-2-isobutyl-cyclobutyl] (2S)-2-[(3-hydroxy-4-methoxy-pyridine-2-carbonyl)amino]propanoate]
not listed: [2]
≥ 80%: all other assays above

Reference: patent US11291205B2, “Microbiocidal picolinamide derivatives” (Syngenta Participations AG, priority 2017, dated 2022)
